Reference: patent publication US8178506B2, “Oligomeric compounds and compositions for use in modulation of small non-coding RNAs” (Regulus Therapeutics Inc., priority 2003, dated 2012)
Values joined by “and” are separate entries in the source; they are usually repeats but may differ in a detail not shown here. Equal values may be shown once. In the oligonucleotide strings, read from the 5' end, every base follows the letter of its sugar. An asterisk marks phosphorothioate; unmarked linkages are phosphodiester. Other units and linkages are bracketed, terminal groups are in braces. A string of capitals states the bases alone. e = 2'-O-(2-methoxyethyl) (MOE); [5mC] = 5-methylcytosine

Tested on: HeLa cells
Assay: Cell cycle assay in HeLa cells
Type: cell-based, human
Settings: HeLa cells, 150 nM oligomeric compound; for % cells aneuploid / % cells in cell cycle phase G1 / % cells in cell cycle phase G2/M / % cells in cell cycle phase S / % cells in cell cycle phase subG1: 24 hours, relative to untreated control (UTC = 100); for % cells in cell cycle phase: G1 / % cells in cell cycle phase: G2/M / % cells in cell cycle phase: S / % cells in cell cycle phase: aneuploid / % cells in cell cycle phase: subG1: 48 hours after treatment, relative to untreated control (UTC=100)

| Substance | % cells aneuploid | % cells in cell cycle phase G1 | % cells in cell cycle phase G2/M | % cells in cell cycle phase S | % cells in cell cycle phase subG1 | % cells in cell cycle phase: G1 | % cells in cell cycle phase: G2/M | % cells in cell cycle phase: S | % cells in cell cycle phase: aneuploid | % cells in cell cycle phase: subG1 [%] |
| --- | --- | --- | --- | --- | --- | --- | --- | --- | --- | --- |
| 327876 (antisense eA*eA*e[5mC]*eA*e[5mC]*eT*eG*eA*eT*eT*eT*e[5mC]*eA*eA*eA*eT*eG*eG*eT*eG*e[5mC]*eT*eA) [compound 327876] | 66% and 75% | 98% and 93% | 95% and 131% | 104% and 92% | 103% and 149% | 87% and 76% | 119% and 126% | 120% and 141% | 100% and 69% |  |
| 327877 (antisense e[5mC]*eG*e[5mC]*e[5mC]*eA*eA*eT*eA*eT*eT*eT*eA*e[5mC]*eG*eT*eG*e[5mC]*eT*eG*e[5mC]*eT*eA) [compound 327877] | 62% | 107% | 159% | 66% | 154% | 59% | 168% | 152% | 80% | 755 |
| 327878 (antisense e[5mC]*eT*eA*eG*eT*eG*eG*eT*e[5mC]*e[5mC]*eT*eA*eA*eA*e[5mC]*eA*eT*eT*eT*e[5mC]*eA*e[5mC]) [compound 327878] | 73% | 96% | 122% | 94% | 124% | 89% | 114% | 119% | 92% | 50 |
| 327885 (antisense eA*e[5mC]*eT*eA*e[5mC]*e[5mC]*eT*eG*e[5mC]*eA*e[5mC]*eT*eG*eT*eA*eA*eG*e[5mC]*eA*e[5mC]*eT*eT*eT*eG) [compound 327885] | 55% | 129% | 121% | 63% | 151% | 78% | 133% | 129% | 76% | 456 |
| 327889 (antisense eG*eT*eG*eG*eT*eA*eA*eT*e[5mC]*e[5mC]*e[5mC]*eT*eG*eG*e[5mC]*eA*eA*eT*eG*eT*eG*eA*eT) [compound 327889] | 82% | 104% | 87% | 102% | 122% | 78% | 130% | 137% | 101% | 133 |
| 327892 (antisense eA*e[5mC]*eT*eT*eT*e[5mC]*eG*eG*eT*eT*eA*eT*e[5mC]*eT*eA*eG*e[5mC]*eT*eT*eT*eA) [compound 327892] | 80% | 86% | 103% | 111% | 153% | 74% | 129% | 150% | 79% | 121 |
